Measurements published in PubChem BioAssay AID328 (DTP/NCI, 2004).
Where “and” joins values, the source holds several entries; their conditions need not be identical. Equal values may be shown once. Toxic doses and inconclusive results are not listed. How the source made its calls: active means survival T/C of 150% or more; inactive means T/C below 125% in these data.

System: BDF1 mice, P388 leukemia ip, median survival T/C
Assay: NCI In Vivo Anticancer Drug Screen. Data for tumor model P388 Leukemia (intraperitoneal) in B6D2F1 (BDF1) mice
Details: endpoint: median survival time, higher = longer survival
Method in brief: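 In tumour-bearing mice, survival after compound treatment is set against the vehicle group and given as a quotient.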

[1] = dose: 50.0 mg/kg/injection, schedule: Q01DX009 (ip), vehicle: water
[2] = dose: 100.0 mg/kg/injection, schedule: Q01DX009 (ip), vehicle: water
[3] = dose: 100.0 mg/kg/injection, schedule: Q04DX003 (ip), vehicle: water
[4] = dose: 200.0 mg/kg/injection, schedule: Q01DX009 (ip), vehicle: water
[5] = dose: 200.0 mg/kg/injection, schedule: Q04DX003 (ip), vehicle: water
[6] = dose: 400.0 mg/kg/injection, schedule: Q01DX009 (ip), vehicle: water
[7] = dose: 400.0 mg/kg/injection, schedule: Q04DX003 (ip), vehicle: water
[8] = dose: 100.0 mg/kg/injection, schedule: Q01DX009 (ip), vehicle: saline with Tween-80
[9] = dose: 100.0 mg/kg/injection, schedule: Q04DX003 (ip), vehicle: saline
[10] = dose: 200.0 mg/kg/injection, schedule: Q01DX009 (ip), vehicle: saline with Tween-80
[11] = dose: 200.0 mg/kg/injection, schedule: Q04DX003 (ip), vehicle: saline
[12] = dose: 400.0 mg/kg/injection, schedule: Q04DX003 (ip), vehicle: saline
[13] = dose: 50.0 mg/kg/injection, schedule: Q04DX003 (ip), vehicle: saline with Tween-80
[14] = dose: 100.0 mg/kg/injection, schedule: Q04DX003 (ip), vehicle: saline with Tween-80
[15] = dose: 200.0 mg/kg/injection, schedule: Q04DX003 (ip), vehicle: saline with Tween-80
[16] = dose: 400.0 mg/kg/injection, schedule: Q04DX003 (ip), vehicle: saline with Tween-80
[17] = dose: 50.0 mg/kg/injection, schedule: Q01DX009 (ip), vehicle: Klucel (hydroxypropylcellulose) (HPC)
[18] = dose: 100.0 mg/kg/injection, schedule: Q01DX009 (ip), vehicle: Klucel (hydroxypropylcellulose) (HPC)
[19] = dose: 200.0 mg/kg/injection, schedule: Q01DX009 (ip), vehicle: Klucel (hydroxypropylcellulose) (HPC)
[20] = dose: 50.0 mg/kg/injection, schedule: Q01DX009 (ip), vehicle: saline with Tween-80
[21] = dose: 50.0 mg/kg/injection, schedule: Q01DX005 (ip), vehicle: saline with Tween-80
[22] = dose: 100.0 mg/kg/injection, schedule: Q01DX005 (ip), vehicle: saline with Tween-80
[23] = dose: 100.0 mg/kg/injection, schedule: Q01DX001 (ip), vehicle: saline with Tween-80
[24] = dose: 200.0 mg/kg/injection, schedule: Q01DX001 (ip), vehicle: saline with Tween-80

Measured: T/C

CC(C)(N)CCC(C)(C)NCCC#N
inactive: [1] 103 % of control | [2] 99 % of control | [3] 110 % of control | [4] 122 % of control | [5] 103 % of control | [6] 114 % of control | [7] 103 % of control

C#CC1(OCC(O)CCl)CCCCC1 (stereo unspecified)
inactive: [8] 116 % of control | [9] 110 % of control | [10] 104 % of control | [11] 120 % of control | [12] 100 % of control

c1cc[c]([Pb]([c]2ccccc2)([c]2ccccc2)[n]2ccc3ccccc32)cc1
inactive: dose: 0.78 mg/kg/injection, schedule: Q01DX009 (ip), vehicle: saline 100 % of control | dose: 1.05 mg/kg/injection, schedule: Q01DX009 (ip), vehicle: Klucel (hydroxypropylcellulose) (HPC) 103 % of control | dose: 1.05 mg/kg/injection, schedule: Q01DX009 (ip), vehicle: other 108 % of control | dose: 2.05 mg/kg/injection, schedule: Q01DX009 (ip), vehicle: saline 115 % of control | dose: 2.08 mg/kg/injection, schedule: Q01DX009 (ip), vehicle: Klucel (hydroxypropylcellulose) (HPC) 94 % of control | dose: 2.08 mg/kg/injection, schedule: Q01DX009 (ip), vehicle: other 108 % of control and 109 % of control | dose: 3.12 mg/kg/injection, schedule: Q01DX009 (ip), vehicle: Klucel (hydroxypropylcellulose) (HPC) 108 % of control | dose: 3.12 mg/kg/injection, schedule: Q01DX009 (ip), vehicle: other 100 % of control | dose: 4.68 mg/kg/injection, schedule: Q01DX009 (ip), vehicle: Klucel (hydroxypropylcellulose) (HPC) 109 % of control

Oc1c(-c2ccccc2)cc(-[n+]2c(-c3ccccc3)cc(-c3ccccc3)cc2-c2ccccc2)cc1-c1ccccc1
inactive: dose: 0.38 mg/kg/injection, schedule: Q01DX009 (ip), vehicle: saline with Tween-80 100 % of control | dose: 0.75 mg/kg/injection, schedule: Q01DX009 (ip), vehicle: saline with Tween-80 108 % of control | dose: 1.5 mg/kg/injection, schedule: Q01DX009 (ip), vehicle: saline with Tween-80 108 % of control

O=Cc1[nH]c(=O)[nH]c(=O)c1Br
inactive: [13] 112 % of control

CCCCCCCCC1SC1CCCCCCCC(=O)OCCOCCOCC (stereo unspecified)
inactive: [9] 88 % of control | [11] 88 % of control | [12] 92 % of control

CCCCCCCSc1ncnc2nc[nH]c12
inactive: [8] 100 % of control | [14] 86 % of control | [10] 86 % of control | [15] 95 % of control | dose: 400.0 mg/kg/injection, schedule: Q01DX009 (ip), vehicle: saline with Tween-80 109 % of control | [16] 100 % of control

COc1ccc2c3c(ccc2c1)C(=O)C(C)(C#N)CC3 (stereo unspecified)
inactive: [17] 104 % of control | [18] 95 % of control | dose: 100.0 mg/kg/injection, schedule: Q04DX003 (ip), vehicle: other 95 % of control | [19] 100 % of control | dose: 200.0 mg/kg/injection, schedule: Q04DX003 (ip), vehicle: other 100 % of control | dose: 400.0 mg/kg/injection, schedule: Q04DX003 (ip), vehicle: other 95 % of control

CCOC(=O)NC12c3ccccc3C(c3ccccc31)C(C(=O)O)C2C(=O)O (stereo unspecified)
inactive: [14] 118 % of control | [15] 118 % of control | [16] 118 % of control

CCN(CC)CCN1C(=O)CN=C(c2ccccn2)c2cc(Cl)ccc21
inactive: [13] 95 % of control | [14] 100 % of control | [15] 105 % of control

COc1ccc(Br)cc1/C=C/[N+](=O)[O-]
inactive: [20] 87 % of control

O=C1C=Cc2cccc3cccc1c23
inactive: dose: 50.0 mg/kg/injection, schedule: Q04DX003 (ip), vehicle: saline sonified 95 % of control | dose: 100.0 mg/kg/injection, schedule: Q04DX003 (ip), vehicle: saline sonified 95 % of control | dose: 200.0 mg/kg/injection, schedule: Q04DX003 (ip), vehicle: saline sonified 91 % of control

COc1cccc(/C=N/NC(=O)c2cc(C)nc3ccc(Br)cc23)c1O
inactive: [20] 103 % of control | [8] 103 % of control | [10] 100 % of control

COC(=O)c1ccccc1NC(=O)C(Cl)Cl
inactive: dose: 75.0 mg/kg/injection, schedule: Q04DX003 (ip), vehicle: olive oil, sesame oil, peanut oil 95 % of control | dose: 100.0 mg/kg/injection, schedule: Q01DX001 (ip), vehicle: olive oil, sesame oil, peanut oil 95 % of control | dose: 150.0 mg/kg/injection, schedule: Q04DX003 (ip), vehicle: olive oil, sesame oil, peanut oil 95 % of control | dose: 200.0 mg/kg/injection, schedule: Q01DX001 (ip), vehicle: olive oil, sesame oil, peanut oil 90 % of control | dose: 300.0 mg/kg/injection, schedule: Q04DX003 (ip), vehicle: olive oil, sesame oil, peanut oil 100 % of control | dose: 400.0 mg/kg/injection, schedule: Q01DX001 (ip), vehicle: olive oil, sesame oil, peanut oil 100 % of control

O=C(O)CS(=O)c1ccc2c3c(cccc13)C(=O)c1ccccc1-2 (stereo unspecified)
inactive: [21] 87 % of control | [22] 94 % of control | dose: 200.0 mg/kg/injection, schedule: Q01DX005 (ip), vehicle: saline with Tween-80 94 % of control

O=C(NNc1ccccc1)c1ccccc1
inactive: [17] 105 % of control | dose: 50.0 mg/kg/injection, schedule: Q04DX003 (ip), vehicle: Klucel (hydroxypropylcellulose) (HPC) 109 % of control | [18] 105 % of control | dose: 100.0 mg/kg/injection, schedule: Q04DX003 (ip), vehicle: Klucel (hydroxypropylcellulose) (HPC) 104 % of control | [19] 120 % of control | dose: 200.0 mg/kg/injection, schedule: Q04DX003 (ip), vehicle: Klucel (hydroxypropylcellulose) (HPC) 100 % of control

CCOC(=O)CSc1c([N+](=O)[O-])c(C)nn1C
inactive: dose: 3.12 mg/kg/injection, schedule: Q04DX003 (ip), vehicle: water 110 % of control | dose: 6.25 mg/kg/injection, schedule: Q04DX003 (ip), vehicle: water 100 % of control and 106 % of control | dose: 12.5 mg/kg/injection, schedule: Q04DX003 (ip), vehicle: water 92 % of control and 104 % of control | dose: 25.0 mg/kg/injection, schedule: Q01DX009 (ip), vehicle: water 93 % of control | dose: 25.0 mg/kg/injection, schedule: Q04DX003 (ip), vehicle: water 88 % of control and 100 % of control | [1] 90 % of control | dose: 50.0 mg/kg/injection, schedule: Q04DX003 (ip), vehicle: water 97 % of control and 100 % of control and 113 % of control | [2] 93 % of control | [3] 101 % of control and 104 % of control | [4] 101 % of control | [5] 109 % of control | [6] 101 % of control | [7] 103 % of control

CCCCCC1(C)OCC(C)O1 (stereo unspecified)
inactive: [20] 101 % of control | [8] 106 % of control | [10] 109 % of control

COC(=O)c1cc(=O)nc(NN=C(C)C)s1
inactive: [21] 91 % of control | [22] 100 % of control

O=C(Cl)c1cc2ccccc2o1
inactive: [23] 91 % of control | [24] 108 % of control | dose: 400.0 mg/kg/injection, schedule: Q01DX001 (ip), vehicle: saline with Tween-80 91 % of control

CC(=O)C(O)c1c(O)cc(C)[nH]c1=O (stereo unspecified)
inactive: [20] 100 % of control | [8] 97 % of control | [10] 98 % of control

CCCCCCCCCCCC[N+](C)(C)C (tested in a mixture with another compound)
inactive: dose: 9.2 mg/kg/injection, schedule: Q01DX009 (ip), vehicle: saline 107 % of control

Nc1ncnc2nc(-c3ccc(Br)cc3)[nH]c12
inactive: [23] 94 % of control | [24] 106 % of control

CCCCCCCCOc1cc(OCCCCCCCC)c2c(ccc3ccccc32)c1
inactive: [14] 97 % of control | [15] 88 % of control | [16] 94 % of control

COc1ccccc1NC(=O)Nc1cccc(Cl)c1
inactive: [14] 95 % of control | [15] 104 % of control | [16] 95 % of control
